Where only a bound is given, the exact number is not on record here.

Broadly, the melting point is the temperature of the solid-liquid transition. Compound `CCCCC(NC(=O)C(CC(C)C)NC(=O)c1cccc2ccccc12)C(=O)CSCc1ccco1` (configuration not stated) displayed a melting point of 81 to 83 °C.
`CCN1C(=O)C(C)(C)C(=O)N(C)c2cc(CN(CCn3cc(C)c4occc4c3=O)Cc3cnc(C)nc3)ccc21` yielded a melting point of 166 to 167 °C.
As to `CCCCN(CCCC)CCCOc1ccc(S(=O)(=O)c2c(C3CCCCC3)cn3ccccc23)cc1`, the melting point was in the range of 130 to 131 °C.
Compound `O=Cc1ccc(-c2ccc3ncnc(Nc4ccc(OCc5cccc(F)c5)c(Cl)c4)c3c2)o1` had a melting point of 230 to 234 °C.
`O=C(Cl)c1ccccc1SCc1ccccc1` showed a melting point of 113 to 116 °C.
Turning to `CC(C)(C)OC(=O)N1CCC(c2ccc([N+](=O)[O-])cc2)CC1`, the melting point was 60 to 62 °C.
In turn, `CO[C@@H](C(=O)N[C@H]1CC[C@@H](OC(=O)Cc2ccc(Cl)c(Cl)c2)CNC1=O)[C@H](O)[C@@H](O)[C@H](O)/C=C/C(C)(C)C` returned a melting point of 132 to 136 °C.
The compound `Cc1oncc1C(=O)N1CCCCC1` yielded a melting point of 40 to 43 °C.
On to `COc1ccc2nc(NN)nc(-c3ccccc3)c2c1`, for which the melting point was in the range of 151 to 152 °C.
`Cc1c(F)c(Cl)cc2c1c(=O)c(C(=O)O)cn2C1CC1` gave a melting point of 258 to 260 °C.
Compound `Nc1nc(-c2ccco2)nc2ccccc12` registered a melting point of 219 to 221 °C.
Turning to `COc1ccc2[nH]c(=O)nc(C)c2c1OC`, the melting point was 248 to 249 °C.
For the compound `CCOC(=S)CC/C(C)=C/Cc1c(O)c2c(c(C)c1OC)COC2=O`, the melting point was 63 to 67 °C.
Under `COc1ccc(C(=CC(=O)N2CCOCC2)c2ccc([N+](=O)[O-])cc2)cc1OC` stands 149 to 163 °C; under `CC(C)Cn1c(=O)n(C)c(=O)c2c(SCCC(C)O)c(Cc3cccc4ccccc34)sc21` (configuration not stated), 162 to 163 °C.
Under `CC(=O)NC[C@H]1CN(c2ccc(N3CCC(n4nnc(N5CCN(C(C)=O)CC5)n4)CC3)c(F)c2)C(=O)O1` stands 216 to 218 °C; under `Cc1cc(C2(C3CC3)CC(c3ccc(Cl)cc3)=NO2)ccc1NC(=O)c1cccc(I)c1C(=O)NC(C)C` (configuration not stated), 178 to 180 °C; under `O=C(Nc1cc(Cl)c(O)c(Cl)c1)c1ccc(O)cc1O`, 235 to 237 °C.
Under `O=c1c2ccc([N+](=O)[O-])cc2nc(CSc2ncnc3[nH]cnc23)n1-c1ccccc1Cl` stands 218 °C.
`O=C(O)C(CC1CCCCC1)c1ccc(OCc2ccc3ccccc3n2)cc1` (configuration not stated): the melting point was in the range of 148 to 150 °C.
In turn, `CN1Cc2c(Br)ncn2-c2ccccc2C1=O` yielded a melting point of 196 to 198 °C.
In turn, `COC(=O)CCn1ccc2cc([N+](=O)[O-])ccc21` came in with a melting point of 97 to 99 °C.
`O=C1NC(=O)C(c2sccc2Br)O1` (configuration not stated) gave a melting point of 138 to 139 °C.
With `CC(C)c1cccc(C(C)C)c1OS(=O)(=O)C(OC(N)=O)c1c(C(C)C)cccc1C(C)C` (configuration not stated), the melting point lay in the range of 95 to 101 °C.
Take `O=C1COCc2cc(Br)ccc21`: the melting point was 144 to 146 °C.
As for `Cc1cc2c(cc1O)C(C)(C)CC1(CC(C)(C)c3cc(OCCCn4ccnc4)c(C)cc3O1)O2` (configuration not stated), the melting point lay in the range of 209 to 211 °C.
Regarding `Nc1c(Cl)cc(C(O)CNCCCCCCOCCCc2ccc(Br)cn2)cc1Cl` (configuration not stated), the melting point was 52 to 55 °C.
Consider `CNC(=O)N1CC(Oc2ccccn2)C1`, for which the melting point is 165 to 168 °C.
In the case of `Nc1cc(C(=O)c2ccccc2)ccc1N1CCCCC1`, the melting point is 99 to 100 °C.
`O=Cc1coc2cc(OCCCN3CCC(c4noc5cc(F)ccc45)CC3)ccc2c1=O` returned a melting point of 163 to 165 °C.
`Cc1c(Cc2ccc(C(C)C)cc2)c2c(c(C)c1NC(=O)CC(C)(C)C)CC(C)O2` (configuration not stated) showed a melting point of 179 to 180 °C.
Compound `O=C(NCCO)c1cccc(-c2cccc3c2OC(Cc2cccc(C(F)(F)F)c2)C3)c1` (configuration not stated) yielded a melting point of 161 to 162 °C.
`COc1ccc2c(c1)N(CCNC(C)=O)CC(c1ccccc1)O2` (configuration not stated) returned a melting point of 153 to 154 °C.
Next, `C[Si](C)(O)O[Si](C)(C)c1ccc(OC(=O)Oc2ccc([Si](C)(C)O[Si](C)(C)O)cc2)cc1`: 62 to 63 °C.
Under `CCN1CCN(Cn2nc(-c3ccsc3)c3c2-c2ccccc2C3)CC1` stands 111 to 112 °C; under `C=Cc1c(C(=O)OC)nc(Cl)c(Cl)c1N`, 96 to 97 °C.
`OC1=NN(c2cc(-c3ccnc(Nc4cccc(Cl)c4)n3)ccn2)CC1` gave a melting point of 222 to 226 °C.
With `CCOC(=O)CN(Cc1cc(-n2cc(C)nc2C)ccc1[N+](=O)[O-])C(=O)C(F)(F)F`, the melting point lay within 172 to 176 °C.
The compound `COC(=O)c1sc2cc(C(F)(F)F)ccc2c1NC(C)=O` displayed a melting point of 204 to 205 °C.
Compound `CC1OC(Cn2cncn2)(c2ccccc2)C1(C)C` (configuration not stated) yielded a melting point of 102 °C.
For `FC(F)(F)c1nc(-c2ccc(NCc3ccccc3)cn2)no1`, the melting point lay within 81 to 84 °C.
`CC(O)c1ccc(CCNS(=O)(=O)c2ccc(Br)cc2)cc1` (configuration not stated) had a melting point of 125 to 127 °C.
Take `COC(=O)C1=C(C(=O)OC)C2OC1c1cc3c(cc12)OCO3`: the melting point was in the range of 117 to 119 °C.
`O=S(=O)(CCCCCOc1ccc(C2=C(c3ccc(O)cc3)CCCc3cc(O)ccc32)cc1)CCCC(F)(F)C(F)(F)F`: the melting point lay in the range of 168 to 170 °C.
In turn, `O=C(O)CCc1c(C(=O)O)[nH]c2cc(I)ccc12` had a melting point of 230 to 232 °C.
With `NC(=O)N1C(=O)C(C(=O)c2cccs2)c2cc(F)c(Cl)cc21` (configuration not stated), the melting point is 220 to 221 °C.
Next, `CCCc1c(COc2ccc(C(=O)Cc3nnn[nH]3)cc2)ccc(C(C)=O)c1O`: 207 to 209 °C.
Compound `Cn1c(=O)c(-c2ccc(Cl)cc2Cl)cc2c3cc(-c4cnco4)ccc3n(C)c21` displayed a melting point of 170 to 174 °C.
`COC(=O)c1cc(OC)c(C#N)c(OC)c1` came in with a melting point of 151 to 153 °C.
Compound `CCNC(=O)c1ccccc1OC(C)(C)C` returned a melting point of 34.5 to 36 °C.
In the case of `CCOC(=O)C(C(C)C)S(=O)(=O)c1ccc(OC)cc1` (configuration not stated), the melting point was 53 °C.
In the case of `CCC(CCCN)Nc1cc(OC)c(OC)c2c(C)ccnc12` (configuration not stated), the melting point lay in the range of 136 to 137 °C.
As to `CCC(CC)n1nnc2c(Nc3c(C)cc(C)cc3C)nc(C)cc21`, the melting point lay within 140 to 142 °C.
Under `CCC(=O)Nc1c(C#N)cnn1-c1ccc(OC(F)(F)F)cc1Cl` stands 127 °C; under `O=C(O)c1ccc(NCC=C(c2ccc(Cl)cc2)c2ccc(Cl)cc2)cc1`, 231 to 235 °C; under `O=C(O)CCC(=O)c1cc2c(s1)CCc1ccccc1C2=O`, 167 to 168 °C.
With `O=C1N(Cc2cnc(O)nc2)c2ccccc2C12COc1cc3c(cc12)OCCO3` (configuration not stated), the melting point is > 250 °C.
Consider `CC(C)(C)C1=NN(c2ccc(C(=O)O)cc2)C(c2ccc(Cl)cc2)C1` (configuration not stated), for which the melting point came out at 208 °C.
The compound `COc1ccc(-c2oc3c(CC=C(C)C)c(OC4OC(CO)C(O)C(O)C4O)cc(O)c3c(=O)c2OC2OC(C)C(O)C(O)C2O)cc1` (configuration not stated) returned a melting point of 231 to 233 °C.
The compound `CCC(c1oc2ccccc2c(=O)c1-c1ccccc1)n1cnc2c(N)ncnc21` (configuration not stated) came in with a melting point of 223 to 225 °C.
`CC(=O)c1c[nH]c(-c2ccccc2)n1` had a melting point of 158 °C.
Compound `COC(=O)c1cc(OC(C)=O)c2cc(Br)ccc2c1C` gave a melting point of 78 °C.

For the origin of these results see a melting point compilation (Tetko et al.; mined from patent text by program, amines drawn as free bases though some values may be those of a salt).
